Test results as given in patent US20210009542A1 (Calico Life Sciences LLC, priority 2018, published 2021).
Read-outs that look alike come from different tables or passages of the source.

What was measured:
[1] = tested on: MC-38 murine colon adenocarcinoma; assay: In vivo efficacy in MC38 tumor model; conditions: for mice that achieved complete cures / tolerability / Tumor Growth Inhibition (Max) compared to vehicle [%]: 300 mg/kg/dose oral BID for 21 days; for Tumor Growth Inhibition (Max) compared to vehicle [%]: C57Bl/6 mice, TGIMax over the entirety of the study; for tumor response observed: within 7-10 days of treatment
Method: All experiments were conducted in compliance with AbbVie's Institutional Animal Care and Use Committee and the National Institutes of Health Guide for Care and Use of Laboratory Animals guidelines in a facility accredited by the Association for the Assessment and Accreditation of Laboratory Animal Care. C57Bl/6 female mice were obtained from Charles River (Wilmington, Mass.). The mice were group-housed 10 per cage. Food and water were available ad libitum. Animals were acclimated to the animal facilities for a period of at least one week prior to commencement of experiments. Animals were tested in the light phase of a 12-hour light:12-hour dark schedule (lights on 0600 hours).
Cells were grown to passage 3 in vitro. A total of 1×10^5 viable MC-38 cells were inoculated subcutaneously into the right flank of female C57Bl/6 mice (7-12 weeks old) on Day 0. The injection volume was 0.1 mL and was composed of a 1:1 mixture of S-MEM and Matrigel® (Corning, N.Y., USA). […] The mean tumor volume (TV) at size match was approximately 116±8 mm^3. Following size match, treatments were initiated on the same day. […] Compound 124 was formulated in 5% DMSO, 5% Tween 80 (Polysorbate 80), 20% PEG-400 and 70% D5W (5% dextrose in water) and was dosed at 10 mL/kg. […] Tumor volume was calculated three times weekly. Measurements of the length (L) and width (W) of the tumor were taken via electronic caliper and the volume was calculated according to the following equation: V=L×W^2/2 using Study Director Version 3.1.399.22 (Studylog Systems, Inc, CA, USA). Mice were euthanized when tumor volume was […] or skin ulcerations occurred. […] Reported TGIMax is the largest TGI value for any timepoint that tumors volumes were collected for that treatment group.

[2] = target: T1, His tagged PTPN2 (TC45) protein (Homo sapiens, UniProt P17706); assay: Mobility shift assay (MSA) for potency of PTPN2 inhibitors; format: biochemical
T1 construct: made in house
T1 sequence (P17706 with tags, fused parts or gaps isoform P17706-2): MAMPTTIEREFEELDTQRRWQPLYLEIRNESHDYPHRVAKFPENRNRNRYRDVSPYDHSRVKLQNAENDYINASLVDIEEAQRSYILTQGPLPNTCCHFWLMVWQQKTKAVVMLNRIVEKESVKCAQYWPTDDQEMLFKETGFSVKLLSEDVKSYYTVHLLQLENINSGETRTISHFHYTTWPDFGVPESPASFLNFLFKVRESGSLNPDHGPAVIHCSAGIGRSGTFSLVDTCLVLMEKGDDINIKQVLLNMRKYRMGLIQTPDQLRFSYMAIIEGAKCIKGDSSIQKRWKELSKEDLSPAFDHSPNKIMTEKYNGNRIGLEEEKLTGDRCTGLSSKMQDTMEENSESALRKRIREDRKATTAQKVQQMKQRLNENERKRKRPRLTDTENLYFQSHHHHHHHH
Summary of the method: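 IC50 values were derived from % inhibition of substrate conversion, measured by microfluidic mobility shift (ex 488/em 530) after quenching. The fluorescent phosphotyrosine insulin-receptor peptide ([…]) reacted for 10 min at room temperature with 0.5 nM His-tagged TC45 PTPN2 that had been preincubated 10 min with compound (12 points, 1:3). Buffer was HEPES pH 7.5 with EGTA, EDTA, Tween 20 and DTT.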

pSTAT5 in CD3+ T cells = assay: pSTAT5 flow cytometry assay in mouse whole blood; format: in vivo; conditions: 300 mg/kg/dose oral BID; day 8 of dosing, 2 hours post 16th dose; 100 ng/mL murine IL-2
Method: Whole blood was drawn into EDTA powder coated tubes by cardiac puncture from mice on day 8 of dosing with indicated PTPN2/1B inhibitor (2 hours after the 16th dose). 100 μL of whole blood were stimulated with 100 ng/mL murine IL-2 (R&D Systems, Minneapolis, Minn., cat #402-ML) for 20 minutes at 37° C., 5% CO2. After stimulation, 1.8 mL of prewarmed BD Phosflow Lyse/Fix Buffer (BD Biosciences, San Jose, Calif.) was added for 20 minutes at 37° C. Cells were washed twice in FACS buffer (Dulbecco's PBS with 0.2% BSA) and incubated for 30 minutes on ice in cold Perm Buffer III (BD Biosciences, San Jose, Calif.). Cells were washed with FACS buffer and resuspended in […] of FACS buffer with antibodies and stained for 3 hours at room temperature with gentle shaking. […] After staining, cells were washed twice with FACS buffer, and the samples were acquired on a BD LSRFortessa™ X20 flow cytometers (BD Biosciences, San Jose, Calif.) and analyzed with FLowJo V10 software (FlowJo, Ashland, Oreg.). The mean fluorescence intensity (MFI) of pSTAT5 as a measure of the amount of phosphorylated STAT5 in the CD3+ T cell population was reported as fold-change of compound treated over vehicle treated animal groups.

[3] = tested on: Granzyme B+ cells within CD8+ T cells; assay: Granzyme B staining of CD8 T cells flow cytometry assay in mouse spleen; format: in vivo; conditions: 300 mg/kg/dose oral BID; day 8 of dosing, 2 hours post 16th dose
Method: Mice were sacrificed on day 8 of dosing with indicated PTPN2/1B inhibitor (2 hours after the 16th dose) and spleens were excised. Spleens were dissociated with a gentleMACS dissociator (Miltenyi Biotec, Bergisch Gladbach, Germany), red blood cells lysed, and single cell suspensions were prepared. Splenocytes were stained with Zombie UV™ Fixable Viability kit (Biolegend, San Diego, Calif.) diluted in Dulbecco's PBS for 10 minutes at room temperature to exclude dead cells followed by staining for surface markers for 45 minutes on ice using the following flow cytometry antibodies diluted in autoMACS Running Buffer (Miltenyi Biotec, Bergisch Gladbach, Germany): Brilliant Violet 510-labeled anti-CD45, Brilliant Ultraviolet 395-labeled anti-CD3, Brilliant Violet 786-labeled anti-CD4, APC/Cy7-labeled anti-CD8. […] After staining, cells were washed twice with autoMACS Running Buffer, and the samples were acquired on a BD LSRFortessa™ X20 flow cytometers (BD Biosciences, San Jose, Calif.) and analyzed with FLowJo V10 software (FlowJo, Ashland, Oreg.). […]

| SMILES | mice that achieved complete cures [1] | tolerability [1] | Tumor Growth Inhibition (Max) compared to vehicle [%] [1] | tumor response observed [1] | IC50 ([2]; read-out: PTPN2 MSA IC50) | pSTAT5 level in CD3+ T cells from IL2 stimulated whole blood [fold increase over vehicle] (pSTAT5 in CD3+ T cells) | % GzB+ cells within splenic CD8+ T cells [fold change over vehicle] [3] | IC50 ([2]; Table 4, read-out: PTPN2 MSA IC50) | IC50 ([2]; read-out: PTPN2 IC50) |
| --- | --- | --- | --- | --- | --- | --- | --- | --- | --- |
| CC(C)(O)CCOc1ccc2cc(O)c(N3CC(=O)NS3(=O)=O)c(F)c2c1 [Compound 182, 5-[1-fluoro-3-hydroxy-7-(3-hydroxy-3-methylbutoxy)naphthalen-2-yl]-1λ^6,2,5-thiadiazolidine-1,1,3-trione] | 50% | well tolerated, without obvious adverse health events | 94% | apparent tumor stasis and shrinkage | < 1 nM | – | – | – | – |
| COc1ccc2cc(O)c(N3CC(=O)NS3(=O)=O)c(F)c2c1 [Compound 124, 5-(1-fluoro-3-hydroxy-7-methoxynaphthalen-2-yl)-1λ^6,2,5-thiadiazolidine-1,1,3-trione] | 50% | well tolerated, without obvious adverse health events | 75% | apparent tumor stasis and shrinkage | 1 to 10 nM | 2.3 fold | 2.9 fold | 1 to 10 nM | 4.4 nM |
